Assay in all cases: cell-based
One test has as its target hNav1.7 (Homo sapiens, UniProt Q15858). It counts as cell-based.
The next test deals with hNav1.5 (Homo sapiens, UniProt Q14524).
A further test deals with hNav1.3 (Homo sapiens, UniProt Q9NY46). As to conditions: IonWorks Quattro, read-out: IWQ Use Nav1.3. A general note: The patch-clamp technique gives a direct electrical read-out from membranes.
Where [1] appears, read: IonWorks Quattro, Use, read-out: IWQ Use Nav1.5.

Molecules are shown by their SMILES. Where two headings read alike, the source gives them in different places. Positions of bridges follow the written chain, without caps; N, C: chain ends. Residues, ends and D or L forms follow the SMILES beside them.

hNav1.3, sequence (Q9NY46 whole entry, looked up): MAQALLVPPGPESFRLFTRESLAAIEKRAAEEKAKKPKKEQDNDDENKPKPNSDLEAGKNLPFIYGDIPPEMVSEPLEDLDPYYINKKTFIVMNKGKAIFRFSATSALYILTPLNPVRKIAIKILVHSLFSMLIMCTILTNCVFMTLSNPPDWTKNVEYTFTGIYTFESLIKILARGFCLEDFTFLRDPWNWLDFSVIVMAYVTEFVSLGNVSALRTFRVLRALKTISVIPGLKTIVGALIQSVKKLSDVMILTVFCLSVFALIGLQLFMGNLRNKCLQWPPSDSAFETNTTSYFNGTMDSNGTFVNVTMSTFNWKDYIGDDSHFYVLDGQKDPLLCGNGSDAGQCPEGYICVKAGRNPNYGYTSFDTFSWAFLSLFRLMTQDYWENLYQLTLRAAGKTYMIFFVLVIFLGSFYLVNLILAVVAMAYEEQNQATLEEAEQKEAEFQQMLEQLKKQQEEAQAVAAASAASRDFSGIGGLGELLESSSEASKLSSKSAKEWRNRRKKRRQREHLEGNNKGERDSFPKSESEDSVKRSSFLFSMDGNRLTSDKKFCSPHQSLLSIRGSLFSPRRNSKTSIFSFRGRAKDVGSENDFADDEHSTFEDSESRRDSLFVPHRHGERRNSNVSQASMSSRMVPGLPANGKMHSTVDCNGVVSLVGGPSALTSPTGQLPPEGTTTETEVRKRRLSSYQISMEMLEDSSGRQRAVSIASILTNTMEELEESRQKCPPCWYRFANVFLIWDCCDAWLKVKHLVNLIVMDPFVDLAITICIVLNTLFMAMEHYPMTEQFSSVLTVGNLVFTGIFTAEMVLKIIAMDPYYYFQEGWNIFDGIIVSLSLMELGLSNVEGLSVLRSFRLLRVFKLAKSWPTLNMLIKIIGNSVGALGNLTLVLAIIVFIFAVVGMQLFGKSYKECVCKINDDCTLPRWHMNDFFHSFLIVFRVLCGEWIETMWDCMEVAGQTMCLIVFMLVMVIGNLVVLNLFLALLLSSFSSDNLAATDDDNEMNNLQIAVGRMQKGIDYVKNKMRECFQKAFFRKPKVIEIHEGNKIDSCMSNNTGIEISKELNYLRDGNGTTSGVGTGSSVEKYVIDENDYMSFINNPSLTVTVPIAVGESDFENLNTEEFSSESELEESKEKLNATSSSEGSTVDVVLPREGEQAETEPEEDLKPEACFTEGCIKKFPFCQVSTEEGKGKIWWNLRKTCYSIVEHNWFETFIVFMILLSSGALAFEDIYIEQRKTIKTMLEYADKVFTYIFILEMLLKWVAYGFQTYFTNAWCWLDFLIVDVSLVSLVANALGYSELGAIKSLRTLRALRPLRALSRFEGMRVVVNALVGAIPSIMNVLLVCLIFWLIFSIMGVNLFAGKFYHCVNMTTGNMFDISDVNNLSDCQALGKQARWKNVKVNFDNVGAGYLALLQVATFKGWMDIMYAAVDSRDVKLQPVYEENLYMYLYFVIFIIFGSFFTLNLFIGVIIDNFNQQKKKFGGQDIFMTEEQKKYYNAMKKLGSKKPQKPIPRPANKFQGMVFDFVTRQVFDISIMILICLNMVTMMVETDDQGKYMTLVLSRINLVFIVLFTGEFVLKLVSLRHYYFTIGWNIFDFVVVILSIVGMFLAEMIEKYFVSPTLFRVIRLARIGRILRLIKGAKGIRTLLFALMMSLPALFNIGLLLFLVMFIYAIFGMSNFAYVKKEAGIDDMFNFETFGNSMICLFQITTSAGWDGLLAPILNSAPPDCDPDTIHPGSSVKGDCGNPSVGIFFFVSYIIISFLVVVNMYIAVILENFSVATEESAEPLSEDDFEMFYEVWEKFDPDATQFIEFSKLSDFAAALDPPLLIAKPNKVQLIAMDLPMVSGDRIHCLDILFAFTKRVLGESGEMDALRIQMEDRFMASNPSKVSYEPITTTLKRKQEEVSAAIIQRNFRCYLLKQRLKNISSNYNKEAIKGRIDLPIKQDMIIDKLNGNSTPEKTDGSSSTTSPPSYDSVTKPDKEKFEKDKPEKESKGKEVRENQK
hNav1.7, sequence (Q15858 whole entry, looked up): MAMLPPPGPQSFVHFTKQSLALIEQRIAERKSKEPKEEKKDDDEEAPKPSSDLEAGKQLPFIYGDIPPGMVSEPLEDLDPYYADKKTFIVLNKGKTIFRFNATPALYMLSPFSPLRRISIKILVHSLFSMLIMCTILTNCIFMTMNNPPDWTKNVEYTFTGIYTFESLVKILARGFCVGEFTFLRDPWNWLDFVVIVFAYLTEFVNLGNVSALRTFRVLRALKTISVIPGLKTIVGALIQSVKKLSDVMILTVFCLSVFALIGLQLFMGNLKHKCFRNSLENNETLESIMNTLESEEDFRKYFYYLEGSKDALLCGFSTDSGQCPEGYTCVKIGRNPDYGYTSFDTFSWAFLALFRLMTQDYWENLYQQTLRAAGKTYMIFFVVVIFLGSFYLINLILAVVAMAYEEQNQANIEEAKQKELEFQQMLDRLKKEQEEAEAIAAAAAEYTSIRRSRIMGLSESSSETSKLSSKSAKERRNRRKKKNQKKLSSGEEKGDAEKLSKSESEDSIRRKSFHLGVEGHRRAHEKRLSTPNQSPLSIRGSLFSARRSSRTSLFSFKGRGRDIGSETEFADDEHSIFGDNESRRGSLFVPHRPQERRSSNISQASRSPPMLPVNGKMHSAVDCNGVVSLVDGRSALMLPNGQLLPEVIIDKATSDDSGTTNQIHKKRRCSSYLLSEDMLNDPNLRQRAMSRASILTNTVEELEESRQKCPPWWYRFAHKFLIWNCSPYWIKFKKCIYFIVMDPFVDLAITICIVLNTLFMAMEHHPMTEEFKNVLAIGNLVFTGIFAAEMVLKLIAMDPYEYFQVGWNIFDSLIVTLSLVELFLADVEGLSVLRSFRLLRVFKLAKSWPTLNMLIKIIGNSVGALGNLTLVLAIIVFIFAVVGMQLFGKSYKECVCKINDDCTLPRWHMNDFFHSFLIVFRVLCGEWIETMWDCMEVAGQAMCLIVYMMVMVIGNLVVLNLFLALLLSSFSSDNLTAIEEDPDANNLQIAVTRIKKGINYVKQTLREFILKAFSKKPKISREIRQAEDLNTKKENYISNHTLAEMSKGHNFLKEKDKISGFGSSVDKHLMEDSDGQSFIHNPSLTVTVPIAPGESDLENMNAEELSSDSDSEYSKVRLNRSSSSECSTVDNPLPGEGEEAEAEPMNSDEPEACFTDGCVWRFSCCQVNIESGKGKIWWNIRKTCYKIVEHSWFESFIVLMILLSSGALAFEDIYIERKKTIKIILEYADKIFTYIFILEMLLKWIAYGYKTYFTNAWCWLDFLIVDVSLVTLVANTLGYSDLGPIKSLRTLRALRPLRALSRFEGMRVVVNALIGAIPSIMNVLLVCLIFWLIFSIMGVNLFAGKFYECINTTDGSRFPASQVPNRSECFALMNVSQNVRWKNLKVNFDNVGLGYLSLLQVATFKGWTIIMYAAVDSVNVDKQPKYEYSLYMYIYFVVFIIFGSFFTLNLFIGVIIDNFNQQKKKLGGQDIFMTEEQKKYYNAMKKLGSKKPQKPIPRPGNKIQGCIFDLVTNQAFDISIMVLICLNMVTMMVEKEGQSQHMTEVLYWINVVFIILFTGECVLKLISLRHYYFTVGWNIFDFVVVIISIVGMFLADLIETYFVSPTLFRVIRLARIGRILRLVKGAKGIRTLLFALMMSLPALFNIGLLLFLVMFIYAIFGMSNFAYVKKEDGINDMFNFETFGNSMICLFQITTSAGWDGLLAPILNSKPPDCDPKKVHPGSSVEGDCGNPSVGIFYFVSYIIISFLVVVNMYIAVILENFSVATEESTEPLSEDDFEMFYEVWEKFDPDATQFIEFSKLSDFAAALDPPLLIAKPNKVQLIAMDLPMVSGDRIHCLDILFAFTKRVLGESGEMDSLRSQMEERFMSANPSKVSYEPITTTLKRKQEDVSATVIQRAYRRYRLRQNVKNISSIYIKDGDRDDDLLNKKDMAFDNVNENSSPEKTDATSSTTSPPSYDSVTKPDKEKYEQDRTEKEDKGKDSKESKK

`CC[C@H](C)[C@@H]1NC(=O)[C@@H]2CSSC[C@@H]3NC(=O)[C@H](C(C)C)NC(=O)[C@H](CC(C)C)NC(=O)[C@H](CC(N)=O)NC(=O)[C@@H]4CCCN4C(=O)[C@H](CCCNC(=N)N)NC(=O)[C@H](CSSC[C@H](NC(=O)[C@@H](N)CC(=O)O)C(=O)N[C@@H](CC(C)C)C(=O)NCC(=O)N[C@@H](Cc4ccccc4)C(=O)N[C@@H](CCSC)C(=O)N[C@@H](CCCNC(=N)N)C(=O)N[C@@H](CCCCN)C(=O)N2)NC(=O)[C@H](CSSC[C@@H](C(=O)N[C@@H](CCCCN)C(=O)N[C@@H](Cc2ccc(O)cc2)C(=O)N[C@H](C(=O)N[C@@H](Cc2ccccc2)C(=O)N[C@@H](C)C(N)=O)C(C)C)NC(=O)[C@H](Cc2c[nH]c4ccccc24)NC(=O)[C@H](CCCCN)NC(=O)[C@H](Cc2c[nH]cn2)NC(=O)[C@H]([C@@H](C)O)NC(=O)[C@H](CCCNC(=N)N)NC(=O)[C@H](CO)NC3=O)NC(=O)[C@H](CCCCN)NC(=O)[C@H](CC(=O)O)NC(=O)[C@H](CC(N)=O)NC(=O)[C@H](CC(=O)O)NC(=O)[C@@H]2CCCN2C1=O` [compound 16]: the IC50 was determined as 0.41 µM at hNav1.7 (IonWorks Quattro, use-dependent, […], read-out: IWQ Use Nav1.7 (μm)); 14.2 µM on hNav1.5 (IonWorks Quattro, use-dependent, […], read-out: IWQ Use Nav1.5); 0.26 µM on hNav1.3 (use-dependent, […]).
Consider `CC[C@H](C)[C@@H]1NC(=O)[C@@H]2CSSC[C@@H]3NC(=O)[C@H](C(C)C)NC(=O)[C@H](CC(C)C)NC(=O)[C@H](CC(N)=O)NC(=O)[C@@H]4CCCN4C(=O)[C@H](CCCNC(=N)N)NC(=O)[C@H](CSSC[C@H](NC(=O)[C@@H](N)CC(=O)O)C(=O)N[C@@H](CC(C)C)C(=O)NCC(=O)N[C@@H](Cc4ccccc4)C(=O)N[C@@H](CCSC)C(=O)N[C@@H](CCCNC(=N)N)C(=O)N[C@@H](CCCCN)C(=O)N2)NC(=O)[C@H](CSSC[C@@H](C(=O)N[C@@H](CCCCN)C(=O)N[C@@H](Cc2ccc(O)cc2)C(=O)N[C@H](C(=O)N[C@@H](Cc2ccccc2)C(N)=O)C(C)C)NC(=O)[C@H](Cc2c[nH]c4ccccc24)NC(=O)[C@H](CCCCN)NC(=O)[C@H](Cc2cnc[nH]2)NC(=O)[C@H]([C@@H](C)O)NC(=O)[C@H](CCCNC(=N)N)NC(=O)[C@H](CO)NC3=O)NC(=O)[C@H](CCCCN)NC(=O)[C@H](CC(=O)O)NC(=O)[C@H](CC(N)=O)NC(=O)[C@H](CCC(=O)O)NC(=O)[C@@H]2CCCN2C1=O` [compound 26] (H-DCLGFMRKCIPENDKCCRPNLVCSRTHKWCKYVF-NH2; disulfide 2-17, 9-23, 16-30), for which the IC50 against hNav1.7 stood at 0.26 µM; on hNav1.5 (setting [1]), 6.45 µM; on hNav1.3 (Use), 0.19 µM.
In the case of `CC[C@H](C)[C@@H]1NC(=O)[C@@H]2CSSC[C@@H]3NC(=O)[C@H](C(C)C)NC(=O)[C@H](CC(C)C)NC(=O)[C@H](CC(N)=O)NC(=O)[C@@H]4CCCN4C(=O)[C@H](CCCNC(=N)N)NC(=O)[C@H](CSSC[C@H](NC(=O)[C@@H](N)CC(=O)O)C(=O)N[C@@H](CC(C)C)C(=O)NCC(=O)N[C@@H](Cc4ccccc4)C(=O)N[C@@H](CCSC)C(=O)N[C@@H](CCCNC(=N)N)C(=O)N[C@@H](CCCCN)C(=O)N2)NC(=O)[C@H](CSSC[C@@H](C(=O)N[C@@H](CCCCN)C(=O)N[C@@H](Cc2ccc(O)cc2)C(=O)N[C@H](C(=O)N[C@@H](Cc2ccccc2)C(N)=O)C(C)C)NC(=O)[C@H](Cc2c[nH]c4ccccc24)NC(=O)[C@H](CCCCN)NC(=O)[C@H](Cc2cnc[nH]2)NC(=O)[C@H]([C@@H](C)O)NC(=O)[C@H](CCCNC(=N)N)NC(=O)[C@H](CO)NC3=O)NC(=O)[C@H](CCCCN)NC(=O)[C@H](CC(=O)O)NC(=O)[C@H](CCC(=O)O)NC(=O)[C@H](CC(=O)O)NC(=O)[C@@H]2CCCN2C1=O` [compound 27] (H-DCLGFMRKCIPDEDKCCRPNLVCSRTHKWCKYVF-NH2; disulfide 2-17, 9-23, 16-30), the IC50 is 0.26 µM on hNav1.7 (IonWorks Quattro, Use, read-out: IWQ Use Nav1.7); 9.38 µM at hNav1.5 (setting [1]); 0.22 µM on hNav1.3 (Use).
As for `CC[C@H](C)[C@@H]1NC(=O)[C@@H]2CSSC[C@@H]3NC(=O)[C@H](C(C)C)NC(=O)[C@H](CC(C)C)NC(=O)[C@H](CC(N)=O)NC(=O)[C@@H]4CCCN4C(=O)[C@H](CCCNC(=N)N)NC(=O)[C@H](CSSC[C@H](NC(=O)[C@@H](N)CC(=O)O)C(=O)N[C@@H](CC(C)C)C(=O)NCC(=O)N[C@@H](Cc4ccccc4)C(=O)N[C@@H](CCSC)C(=O)N[C@@H](CCCNC(=N)N)C(=O)N[C@@H](CCCCN)C(=O)N2)NC(=O)[C@H](CSSC[C@@H](C(=O)N[C@@H](CCCCN)C(=O)N[C@@H](Cc2ccc(O)cc2)C(=O)N[C@H](C(=O)N[C@@H](Cc2ccccc2)C(N)=O)C(C)C)NC(=O)[C@H](Cc2c[nH]c4ccccc24)NC(=O)[C@H](CCCCN)NC(=O)[C@H](Cc2c[nH]cn2)NC(=O)[C@H]([C@@H](C)O)NC(=O)[C@H](CCCNC(=N)N)NC(=O)[C@H](CO)NC3=O)NC(=O)[C@H](CCC(=O)O)NC(=O)[C@H](CC(=O)O)NC(=O)[C@H](CC(N)=O)NC(=O)[C@H](CC(=O)O)NC(=O)[C@@H]2CCCN2C1=O` [compound 28] (H-DCLGFMRKCIPDNDECCRPNLVCSRTHKWCKYVF-NH2; disulfide 2-17, 9-23, 16-30), the IC50 at hNav1.7 was 0.59 µM; at hNav1.5 (setting [1]), 12.1 µM; at hNav1.3 (Use) it was 0.49 µM.
Regarding `CC[C@H](C)[C@@H]1NC(=O)[C@@H]2CSSC[C@@H]3NC(=O)[C@H](C(C)C)NC(=O)[C@H](CC(C)C)NC(=O)[C@H](CC(N)=O)NC(=O)[C@@H]4CCCN4C(=O)[C@H](CCCNC(=N)N)NC(=O)[C@H](CSSC[C@H](NC(=O)[C@@H](N)CC(=O)O)C(=O)N[C@@H](CC(C)C)C(=O)NCC(=O)N[C@@H](Cc4ccccc4)C(=O)N[C@@H](CCSC)C(=O)N[C@@H](CCCNC(=N)N)C(=O)N[C@@H](CCCCN)C(=O)N2)NC(=O)[C@H](CSSC[C@@H](C(=O)N[C@@H](CCCCN)C(=O)N[C@@H](Cc2ccc(O)cc2)C(=O)N[C@H](C(=O)N[C@@H](Cc2ccccc2)C(N)=O)C(C)C)NC(=O)[C@H](Cc2c[nH]c4ccccc24)NC(=O)[C@H](CCCCN)NC(=O)[C@H](CCC(=O)O)NC(=O)[C@H]([C@@H](C)O)NC(=O)[C@H](CCCNC(=N)N)NC(=O)[C@H](CO)NC3=O)NC(=O)[C@H](CCCCN)NC(=O)[C@H](CC(=O)O)NC(=O)[C@H](CC(N)=O)NC(=O)[C@H](CC(=O)O)NC(=O)[C@@H]2CCCN2C1=O` [compound 29] (H-DCLGFMRKCIPDNDKCCRPNLVCSRTEKWCKYVF-NH2; disulfide 2-17, 9-23, 16-30), the IC50 turned out to be 8.54 µM at hNav1.7 (Table 23, IonWorks Quattro, use, […], read-out: IWQ Use Nav1.7); 15.2 µM at hNav1.5 (Table 23, IonWorks Quattro, use, […], read-out: IWQ Use Nav1.5); 12.3 µM at hNav1.3 (Table 23, use, […]).
Take `CC[C@H](C)[C@@H]1NC(=O)[C@@H]2CSSC[C@@H]3NC(=O)[C@H](C(C)C)NC(=O)[C@H](CC(C)C)NC(=O)[C@H](CC(N)=O)NC(=O)[C@@H]4CCCN4C(=O)[C@H](CCCNC(=N)N)NC(=O)[C@H](CSSC[C@H](NC(=O)[C@@H](N)CC(=O)O)C(=O)N[C@@H](CC(C)C)C(=O)NCC(=O)N[C@@H](Cc4ccccc4)C(=O)N[C@@H](CCSC)C(=O)N[C@@H](CCCNC(=N)N)C(=O)N[C@@H](CCCCN)C(=O)N2)NC(=O)[C@H](CSSC[C@@H](C(=O)N[C@@H](CCC(=O)O)C(=O)N[C@@H](Cc2ccc(O)cc2)C(=O)N[C@H](C(=O)N[C@@H](Cc2ccccc2)C(N)=O)C(C)C)NC(=O)[C@H](Cc2c[nH]c4ccccc24)NC(=O)[C@H](CCCCN)NC(=O)[C@H](Cc2cnc[nH]2)NC(=O)[C@H]([C@@H](C)O)NC(=O)[C@H](CCCNC(=N)N)NC(=O)[C@H](CO)NC3=O)NC(=O)[C@H](CCCCN)NC(=O)[C@H](CC(=O)O)NC(=O)[C@H](CC(N)=O)NC(=O)[C@H](CC(=O)O)NC(=O)[C@@H]2CCCN2C1=O` [compound 31] (H-DCLGFMRKCIPDNDKCCRPNLVCSRTHKWCEYVF-NH2; disulfide 2-17, 9-23, 16-30): the IC50 on hNav1.7 (Table 25, IonWorks Quattro, use, […], read-out: IWQ Use Nav1.7) turned out to be 23 µM; on hNav1.5 (Table 25, IonWorks Quattro, use, […], read-out: IWQ Use Nav1.5), 21.7 µM; on hNav1.3 (Table 25, use, […]), 13.1 µM.
`CC[C@H](C)[C@@H]1NC(=O)[C@@H]2CSSC[C@@H]3NC(=O)[C@H](C(C)C)NC(=O)[C@H](CC(C)C)NC(=O)[C@H](CC(N)=O)NC(=O)[C@@H]4CCCN4C(=O)[C@H](CCCNC(=N)N)NC(=O)[C@H](CSSC[C@H](NC(=O)[C@@H](N)CC(=O)O)C(=O)N[C@@H](CC(C)C)C(=O)NCC(=O)N[C@@H](Cc4ccccc4)C(=O)N[C@@H](CCSC)C(=O)N[C@@H](CCCNC(=N)N)C(=O)N[C@@H](CCCCN)C(=O)N2)NC(=O)[C@H](CSSC[C@@H](C(=O)N[C@@H](CCCCN)C(=O)N[C@@H](Cc2ccc(O)cc2)C(=O)N[C@H](C(=O)N[C@@H](CCC(=O)O)C(N)=O)C(C)C)NC(=O)[C@H](Cc2c[nH]c4ccccc24)NC(=O)[C@H](CCCCN)NC(=O)[C@H](Cc2cnc[nH]2)NC(=O)[C@H]([C@@H](C)O)NC(=O)[C@H](CCCNC(=N)N)NC(=O)[C@H](CO)NC3=O)NC(=O)[C@H](CCCCN)NC(=O)[C@H](CC(=O)O)NC(=O)[C@H](CC(N)=O)NC(=O)[C@H](CC(=O)O)NC(=O)[C@@H]2CCCN2C1=O` [compound 34] (H-DCLGFMRKCIPDNDKCCRPNLVCSRTHKWCKYVE-NH2; disulfide 2-17, 9-23, 16-30): the IC50 was 17 µM on hNav1.7 (IonWorks Quattro, use-dependent, […], read-out: IWQ Use Nav1.7); 16.8 µM at hNav1.5 (IWQ Use Nav1.5 (μM)); 11.2 µM on hNav1.3 (use-dependent, […]).

The record behind these values is US9340590B2 (priority 2011, dated 2016).
